{"source": "patent US11351236B2", "about": "“BCMA chimeric antigen receptors” (2seventy bio, Inc., priority 2014, dated 2022)", "test_system": "human multiple myeloma (RPMI-8226) tumors", "assay": "Sub-cutaneous human multiple myeloma (RPMI-8226) tumor model in NSG mice", "format": "in vivo, mouse", "details": "~100 mm^3 RPMI-8226 tumors, 10^7 CAR T cells or Bortezomib, two independent experiments", "description": "Hyperactivation and increased apoptosis could negatively impact CAR T cell persistence in patients and ultimately clinical efficacy. The anti-tumor function of anti-BCMA02 CAR T cells and anti-BCMA10 CAR T cells was examined in a mouse tumor model. NOD scid gamma (NSG) mice with ˜100 mm^3 experimental sub-cutaneous human multiple myeloma (RPMI-8226) tumors were treated with 10^7 anti-BCMA02 CAR T cells, 10^7 anti-BCMA10 CAR T cells, or Bortezomib (velcade). RPMI-8226 growth was monitored with calipers."}
{"compound": "CC(C)C[C@H](NC(=O)[C@H](Cc1ccccc1)NC(=O)c1cnccn1)B(O)O", "note": "[Bortezomib]", "values": [{"measurement": "tumor growth (calipers)", "result": "controlled tumor growth"}]}
